# Reference: patent US6417233B1, “Ubiguinone-containing composition suitable for promoting enhanced intramitochondrial transportation of ubiguinones and methods of using same” (Sigma-Tau HealthScience S.p.A., priority 1998, dated 2002)
# Tested on: normal human photoreceptors cells
# Assay: In vitro study of photoreceptor membranes exposed to oxido-reductive stress
# Format: cell-based
# Details: exposure to strong electron donor substances; result in words
# Text: The mitochondrial membranes are more basophilic, and they contain more unsaturated lipids than the disc membranes of the outer segments.
substance,measurement,value
chlorpromazines,disc membranes,disrupted the disc membranes in dose dependent manner
same,structure of mitochondrial membranes,slighly altered
